Test results from ChEMBL document CHEMBL3585305, “Structure-Based Design and Optimization of Multitarget-Directed 2H-Chromen-2-one Derivatives as Potent Inhibitors of Monoamine Oxidase B and Cholinesterases” (J Med Chem, 2015).

What was measured:
Cholinesterase = Cholinesterase (Equus caballus, UniProt P81908); assay: Inhibition of equine serum BuChE by spectrophotometric Ellman's method
Acetylcholinesterase [1] = target: Acetylcholinesterase (Electrophorus electricus, UniProt O42275); assay: Inhibition of electric eel AChE by spectrophotometric Ellman's method
Acetylcholinesterase (Electrophorus electricus, UniProt O42275), sequence (O42275 whole entry): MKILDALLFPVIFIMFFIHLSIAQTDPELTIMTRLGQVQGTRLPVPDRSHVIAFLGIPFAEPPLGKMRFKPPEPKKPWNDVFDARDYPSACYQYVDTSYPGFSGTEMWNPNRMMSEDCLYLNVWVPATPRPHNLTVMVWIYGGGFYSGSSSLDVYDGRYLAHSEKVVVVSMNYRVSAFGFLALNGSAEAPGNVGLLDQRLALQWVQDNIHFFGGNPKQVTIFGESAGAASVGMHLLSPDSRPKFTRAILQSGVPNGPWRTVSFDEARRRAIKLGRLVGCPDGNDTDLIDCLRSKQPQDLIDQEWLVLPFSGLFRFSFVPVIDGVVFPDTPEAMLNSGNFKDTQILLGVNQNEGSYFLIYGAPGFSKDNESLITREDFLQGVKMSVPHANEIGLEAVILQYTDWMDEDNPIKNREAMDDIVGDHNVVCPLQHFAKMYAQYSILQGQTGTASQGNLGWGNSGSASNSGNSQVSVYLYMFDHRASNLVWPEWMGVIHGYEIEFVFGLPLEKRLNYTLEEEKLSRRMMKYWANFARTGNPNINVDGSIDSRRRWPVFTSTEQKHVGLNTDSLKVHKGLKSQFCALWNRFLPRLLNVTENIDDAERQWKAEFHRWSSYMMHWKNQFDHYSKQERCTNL

[2] = target: T1, Amine oxidase [flavin-containing] B (Rattus norvegicus, UniProt P19643); assay: Inhibition of rat brain MAO-B using kynuramine substrate […] by spectrophotometric assay
T1 sequence (P19643 whole entry): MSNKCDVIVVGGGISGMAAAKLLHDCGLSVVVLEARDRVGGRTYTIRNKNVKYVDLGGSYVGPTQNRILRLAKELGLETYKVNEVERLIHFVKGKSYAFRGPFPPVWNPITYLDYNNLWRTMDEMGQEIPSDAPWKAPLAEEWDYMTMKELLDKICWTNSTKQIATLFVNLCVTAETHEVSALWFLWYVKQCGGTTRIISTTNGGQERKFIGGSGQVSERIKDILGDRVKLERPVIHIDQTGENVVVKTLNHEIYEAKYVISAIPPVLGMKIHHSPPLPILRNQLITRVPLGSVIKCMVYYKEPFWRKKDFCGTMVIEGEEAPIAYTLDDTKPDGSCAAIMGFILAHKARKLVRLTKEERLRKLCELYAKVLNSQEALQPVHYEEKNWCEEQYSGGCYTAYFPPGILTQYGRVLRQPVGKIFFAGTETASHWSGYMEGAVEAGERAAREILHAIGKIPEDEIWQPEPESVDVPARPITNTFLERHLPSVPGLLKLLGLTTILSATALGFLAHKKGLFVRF

[3] = target: T2, Amine oxidase [flavin-containing] A (Rattus norvegicus, UniProt P21396); assay: Inhibition of rat brain MAO-A using kynuramine substrate […] at 10 uM by spectrophotometric assay
T2 sequence (P21396 whole entry): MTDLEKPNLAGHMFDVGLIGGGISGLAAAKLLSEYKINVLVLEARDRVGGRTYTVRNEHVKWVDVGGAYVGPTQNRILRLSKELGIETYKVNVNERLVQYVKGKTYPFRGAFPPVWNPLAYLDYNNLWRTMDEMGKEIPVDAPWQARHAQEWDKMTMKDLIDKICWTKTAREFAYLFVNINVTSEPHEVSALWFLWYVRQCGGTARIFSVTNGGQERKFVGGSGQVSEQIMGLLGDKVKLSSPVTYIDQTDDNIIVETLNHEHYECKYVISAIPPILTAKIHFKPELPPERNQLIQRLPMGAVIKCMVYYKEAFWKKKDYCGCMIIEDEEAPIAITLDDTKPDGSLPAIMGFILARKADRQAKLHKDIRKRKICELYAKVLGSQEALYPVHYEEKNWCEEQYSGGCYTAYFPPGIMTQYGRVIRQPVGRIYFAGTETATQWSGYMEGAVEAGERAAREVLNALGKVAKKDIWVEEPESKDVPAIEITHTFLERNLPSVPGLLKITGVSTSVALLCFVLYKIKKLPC

[4] = target: Cholinesterase (Equus caballus) (UniProt P81908); assay: Inhibition of equine serum BuChE at 10 uM by spectrophotometric Ellman's method
Cholinesterase (Equus caballus), sequence (P81908 whole entry): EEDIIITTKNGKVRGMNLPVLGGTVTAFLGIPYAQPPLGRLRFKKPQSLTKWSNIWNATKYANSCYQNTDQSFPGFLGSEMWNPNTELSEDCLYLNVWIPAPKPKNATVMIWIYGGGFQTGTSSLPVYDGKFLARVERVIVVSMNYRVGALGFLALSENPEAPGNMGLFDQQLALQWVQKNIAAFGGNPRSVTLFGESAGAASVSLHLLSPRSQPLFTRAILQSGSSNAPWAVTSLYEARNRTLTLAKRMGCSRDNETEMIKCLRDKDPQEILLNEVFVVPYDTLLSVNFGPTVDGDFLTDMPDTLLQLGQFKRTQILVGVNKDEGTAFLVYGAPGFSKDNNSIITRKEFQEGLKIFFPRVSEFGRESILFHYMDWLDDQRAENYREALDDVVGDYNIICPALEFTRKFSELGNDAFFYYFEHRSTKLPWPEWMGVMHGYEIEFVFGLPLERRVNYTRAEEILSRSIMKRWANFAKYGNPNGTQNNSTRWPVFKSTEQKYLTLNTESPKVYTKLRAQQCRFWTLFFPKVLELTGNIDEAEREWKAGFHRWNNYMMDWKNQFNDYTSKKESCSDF

[5] = target: T3, Amine oxidase [flavin-containing] A (Homo sapiens, UniProt P21397); assay: Inhibition of human recombinant MAO-A using kynuramine substrate by spectrophotometric assay
T3 sequence (P21397 whole entry): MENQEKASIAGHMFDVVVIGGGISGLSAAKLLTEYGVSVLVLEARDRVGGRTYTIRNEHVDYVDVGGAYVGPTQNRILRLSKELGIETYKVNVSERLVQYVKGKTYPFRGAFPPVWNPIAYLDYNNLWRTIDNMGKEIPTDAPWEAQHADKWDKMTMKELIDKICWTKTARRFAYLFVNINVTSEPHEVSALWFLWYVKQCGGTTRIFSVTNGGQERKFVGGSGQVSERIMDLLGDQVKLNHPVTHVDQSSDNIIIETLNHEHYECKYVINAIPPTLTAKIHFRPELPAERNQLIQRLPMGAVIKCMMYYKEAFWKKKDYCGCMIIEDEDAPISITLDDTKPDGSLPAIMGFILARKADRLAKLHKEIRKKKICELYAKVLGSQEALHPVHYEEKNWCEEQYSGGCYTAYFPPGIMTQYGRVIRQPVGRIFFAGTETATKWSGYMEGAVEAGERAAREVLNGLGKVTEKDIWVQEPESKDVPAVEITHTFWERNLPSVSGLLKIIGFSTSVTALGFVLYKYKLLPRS

[6] = target: T2, Amine oxidase [flavin-containing] A; assay: Inhibition of rat brain MAO-A using kynuramine substrate […] by spectrophotometric assay
[7] = target: T4, Amine oxidase [flavin-containing] B (Homo sapiens, UniProt P27338)
T4 sequence (P27338 whole entry): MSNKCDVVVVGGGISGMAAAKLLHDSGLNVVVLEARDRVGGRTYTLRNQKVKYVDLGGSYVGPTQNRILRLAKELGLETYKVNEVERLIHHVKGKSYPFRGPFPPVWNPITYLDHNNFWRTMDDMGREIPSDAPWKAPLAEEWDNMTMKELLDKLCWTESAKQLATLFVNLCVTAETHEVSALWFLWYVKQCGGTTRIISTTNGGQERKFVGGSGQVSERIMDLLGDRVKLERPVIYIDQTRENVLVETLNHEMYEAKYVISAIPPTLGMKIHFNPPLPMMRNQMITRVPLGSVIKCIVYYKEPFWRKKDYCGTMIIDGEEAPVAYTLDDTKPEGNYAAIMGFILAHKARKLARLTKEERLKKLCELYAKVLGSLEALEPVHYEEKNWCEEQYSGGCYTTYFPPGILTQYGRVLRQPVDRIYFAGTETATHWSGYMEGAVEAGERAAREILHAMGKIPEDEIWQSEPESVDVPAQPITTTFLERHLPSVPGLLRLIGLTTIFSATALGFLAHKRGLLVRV
Description: Inhibition of human recombinant MAO-B using kynuramine substrate by spectrophotometric assay

Acetylcholinesterase [8] = target: Acetylcholinesterase (Homo sapiens, UniProt P22303); assay: Inhibition of human recombinant AChE by spectrophotometric Ellman's method
Acetylcholinesterase (Homo sapiens, UniProt P22303), sequence (P22303 whole entry): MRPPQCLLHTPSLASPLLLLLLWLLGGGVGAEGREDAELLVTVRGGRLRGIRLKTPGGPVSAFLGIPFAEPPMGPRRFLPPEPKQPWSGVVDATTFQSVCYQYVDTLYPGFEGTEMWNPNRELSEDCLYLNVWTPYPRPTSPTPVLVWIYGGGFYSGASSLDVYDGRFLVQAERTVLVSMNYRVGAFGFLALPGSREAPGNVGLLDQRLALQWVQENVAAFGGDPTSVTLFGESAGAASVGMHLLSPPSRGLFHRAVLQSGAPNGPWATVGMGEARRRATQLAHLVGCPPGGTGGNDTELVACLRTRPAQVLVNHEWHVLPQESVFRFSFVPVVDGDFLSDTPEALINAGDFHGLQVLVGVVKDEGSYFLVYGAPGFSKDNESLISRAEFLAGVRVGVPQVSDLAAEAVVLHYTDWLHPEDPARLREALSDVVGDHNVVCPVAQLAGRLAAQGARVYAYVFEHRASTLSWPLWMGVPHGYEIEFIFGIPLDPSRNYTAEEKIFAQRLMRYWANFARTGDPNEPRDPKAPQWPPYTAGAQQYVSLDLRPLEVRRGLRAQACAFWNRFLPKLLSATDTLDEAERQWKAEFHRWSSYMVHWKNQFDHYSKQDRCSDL

[9] = target: T3, Amine oxidase [flavin-containing] A; assay: Inhibition of human recombinant MAO-A using kynuramine substrate at 10 uM by spectrophotometric assay
[10] = target: T1, Amine oxidase [flavin-containing] B; assay: Inhibition of rat brain MAO-B using kynuramine substrate […] at 10 uM by spectrophotometric assay

Cholinesterase, sequence (P81908 whole entry): as the sequence (P81908 whole entry) above

Row | SMILES | IC50 (Cholinesterase) [nM] | IC50 (Acetylcholinesterase [1]) [nM] | IC50 [2] [nM] | inhibition at 10 µM [3] [%] | inhibition [4] [%] | IC50 [5] [nM] | IC50 [6] [nM] | IC50 [7] [nM] | IC50 (Acetylcholinesterase [8]) [nM] | inhibition at 10 µM [9] [%] | inhibition at 10 µM [10] [%]
1 | CN(Cc1ccccc1)Cc1cccc(COc2ccc3ccc(=O)oc3c2)c1 | 1000 | 2300 |  |  |  |  |  |  |  |  | 
2 | Cc1cc2ccc(OCc3ccc(CN(C)Cc4cccc(Cl)c4)cc3)cc2oc1=O |  | 1300 | 4500 | 0 | 29 |  |  |  |  |  | 
3 | Cc1c(C)c2ccc(OCCCCN(C)Cc3ccccc3)cc2oc1=O | 3700 | 490 | 1100 |  |  | 480 | 6600 | 96 | 790 |  | 
4 | Cc1c(C)c2ccc(OCCCCCN(C)Cc3cccc(Cl)c3)cc2oc1=O | 2600 | 290 | 8900 | 42 |  |  |  |  |  |  | 
5 | Cc1c(C)c2ccc(OCc3ccc(CN(C)Cc4ccc(C#N)cc4)cc3)cc2oc1=O |  | 4200 |  |  | 18 |  |  |  | 3900 |  | 
6 | CN(CCc1ccc(COc2ccc3ccc(=O)oc3c2)cc1)Cc1ccccc1 | 520 | 850 |  |  |  |  |  |  |  |  | 
7 | CN(C)Cc1cccc(COc2ccc3ccc(=O)oc3c2)c1 | 5300 |  | 3200 |  |  |  | 10000 |  |  |  | 
8 | Cc1c(C)c2ccc(OCCCCCN(C)Cc3cccc(C#N)c3)cc2oc1=O | 4100 | 2300 | 2500 |  |  |  | 5300 |  |  |  | 
9 | Cc1c(C)c2ccc(OCCCN(C)Cc3ccccc3)cc2oc1=O | 7800 | 1300 | 330 | 35 |  |  |  | 134 | 1000 | 17 | 
10 | Cc1cc(=O)oc2cc(OCc3ccc(CN(C)Cc4cccc(Cl)c4)cc3)ccc12 |  | 120 | 5000 | 0 | 47 |  |  |  | 1000 |  | 
11 | CN(Cc1ccc(C#N)cc1)Cc1ccc(COc2ccc3c(CO)cc(=O)oc3c2)cc1 |  | 6300 | 35 | 0 | 23 | 4480 |  | 5.7 |  |  | 
12 | CCN(CC)Cc1cccc(COc2ccc3ccc(=O)oc3c2)c1 | 6800 | 1700 |  | 43 |  |  |  |  |  |  | 35
13 | CN(Cc1ccccc1)Cc1ccc(COc2ccc3cc(C#N)c(=O)oc3c2)cc1 | 5500 | 200 |  | 0 |  |  |  |  |  |  | 41
14 | O=c1cc(CO)c2ccc(OCc3ccc(CNCc4ccccc4)cc3)cc2o1 | 570 | 440 | 530 | 19 |  |  |  |  |  |  | 
15 | Cc1cc2ccc(OCc3ccc(CN(C)Cc4ccccc4)cc3)cc2oc1=O | 1100 | 260 | 2400 | 0 |  |  |  |  | 500 |  | 
16 | Cc1c(C)c2ccc(OCCCCCN(C)Cc3ccc(C#N)cc3)cc2oc1=O | 4300 | 2800 | 3300 | 48 |  |  |  |  |  |  | 
17 | CCN(CCCCCOc1ccc2c(C)c(C)c(=O)oc2c1)Cc1ccccc1 | 940 | 750 | 7800 |  |  |  | 9500 |  |  |  | 
18 | Cc1cc(=O)oc2cc(OCc3ccc(CN(C)Cc4ccccc4)cc3)ccc12 | 1000 | 180 | 4100 | 10 |  |  |  |  | 910 |  | 

Row | SMILES | IC50 (Cholinesterase) [nM] | IC50 (Acetylcholinesterase [1]) [nM] | IC50 [2] [nM] | inhibition at 10 µM [3] [%] | inhibition [4] [%] | IC50 [5] [nM] | IC50 [6] [nM] | IC50 [7] [nM] | IC50 (Acetylcholinesterase [8]) [nM] | inhibition at 10 µM [9] [%] | inhibition at 10 µM [10] [%]
19 | CN(Cc1ccccc1)Cc1ccc(COc2ccc3ccc(=O)oc3c2)cc1 | 11000 | 750 |  |  |  |  |  |  | 950 |  | 
20 | CN(Cc1ccc(C#N)cc1)Cc1ccc(COc2ccc3cc(C#N)c(=O)oc3c2)cc1 |  |  | 990 | 0 | 14 |  |  |  |  |  | 
21 | Cc1c(C)c2ccc(OCc3ccc(CN(C)Cc4cccc(Cl)c4)cc3)cc2oc1=O |  | 660 | 3400 | 7 | 48 |  |  |  |  |  | 
22 | CN(Cc1cccc(C#N)c1)Cc1cccc(COc2ccc3ccc(=O)oc3c2)c1 | 2800 | 4200 | 3700 | 2 |  |  |  |  |  |  | 
23 | CCN(CC)Cc1ccc(COc2ccc3ccc(=O)oc3c2)cc1 | 3400 | 2900 |  | 9 |  |  |  |  |  |  | 44
24 | Cc1c(C)c2ccc(OCCCCCN(C)Cc3ccccc3)cc2oc1=O | 2800 | 550 | 980 |  |  |  | 4200 |  |  |  | 
25 | CCN(CCCOc1ccc2c(C)c(C)c(=O)oc2c1)Cc1ccccc1 | 4000 | 360 | 980 |  |  |  | 7400 |  |  |  | 
26 | CN(Cc1ccc(COc2ccc3ccc(=O)oc3c2)cc1)Cc1cccc(Cl)c1 | 1200 | 590 | 2700 | 12 |  |  |  |  |  |  | 
27 | CN(Cc1cccc(Cl)c1)Cc1cccc(COc2ccc3ccc(=O)oc3c2)c1 | 310 | 5700 | 3400 | 17 |  |  |  |  |  |  | 
28 | COc1cccc(CN(C)Cc2ccc(COc3ccc4ccc(=O)oc4c3)cc2)c1 | 1400 | 4600 | 2900 | 20 |  |  |  |  |  |  | 
29 | CN(C)Cc1ccc(COc2ccc3ccc(=O)oc3c2)cc1 | 240 | 7100 | 3700 | 17 |  |  |  |  |  |  | 
30 | Cc1cc(=O)oc2cc(OCc3ccc(CN(C)Cc4ccc(C#N)cc4)cc3)ccc12 |  | 3300 | 410 | 10 | 29 |  |  | 39 | 8500 | 39 | 
31 | CN(Cc1ccc(C#N)cc1)Cc1ccc(COc2ccc3ccc(=O)oc3c2)cc1 | 4400 | 5600 | 270 | 6 |  |  |  | 45 | 6000 | 0 | 
32 | O=c1ccc2ccc(OCc3ccc(CCNCc4ccccc4)cc3)cc2o1 | 640 | 4700 |  |  |  |  |  |  |  |  | 
33 | CN(Cc1ccc(COc2ccc3ccc(=O)oc3c2)cc1)Cc1cccc(C#N)c1 | 4100 | 7400 | 2800 | 5 |  |  |  |  |  |  | 
34 | Cc1cc2ccc(OCc3ccc(CN(C)Cc4ccc(C#N)cc4)cc3)cc2oc1=O |  | 7000 | 1700 | 15 | 16 |  |  | 17 |  | 11 | 
35 | COc1cccc(CN(C)Cc2cccc(COc3ccc4ccc(=O)oc4c3)c2)c1 | 880 | 6600 | 2500 | 14 |  |  |  |  |  |  | 
